Converted amounts (≈) assume the structure as drawn. Read-outs that look alike come from different tables or passages of the source.
Experiments:
Test in all cases: MIC, broth microdilution
E. coli GC 2235 = conditions: Escherichia coli
E. coli GC 2272 = conditions: Escherichia coli
E. coli GC 4559 = conditions: Escherichia coli
E. coli GC 4560 = conditions: Escherichia coli
E. coli GC 6465 = conditions: Escherichia coli
E. coli GC 1073 = conditions: Escherichia coli
S. typhimurium GC 2172 = conditions: Salmonella enterica, TYPHIMURIUM
S. aureus GC 1131 = conditions: Staphylococcus aureus
S. aureus GC 6467 = conditions: Staphylococcus aureus
S. aureus GC 1079 = conditions: Staphylococcus aureus
S. aureus GC 4536 = conditions: Staphylococcus aureus
S. epidermidis GC 4935 = conditions: Staphylococcus epidermidis
E. faecalis GC 4555 = conditions: Enterococcus faecalis
E. faecalis GC 2267 = conditions: Enterococcus faecalis
E. faecalis GC 2242 = conditions: Enterococcus faecalis
S. pneumoniae* GC 4465 = conditions: Streptococcus pneumoniae
S. pneumoniae+ GC 4465 = conditions: Streptococcus pneumoniae
S. agalactiae GC 4564 = conditions: Streptococcus agalactiae
c. albicans GC 3066 = test system: c. albicans GC 3066
[1] = read-out: MINIMAL INHIBITORY CONCENTRATION MIC, Human Serum
[2] = read-out: MINIMAL INHIBITORY CONCENTRATION MIC, Mouse Serum
[3] = read-out: MINIMAL INHIBITORY CONCENTRATION MIC, Water

- MIC (E. coli GC 2235; GC2235, read-out: MINIMAL INHIBITORY CONCENTRATION MIC, Human Serum): > 64 µg/mL
- MIC (E. coli GC 2235; GC2235, read-out: MINIMAL INHIBITORY CONCENTRATION MIC, Mouse Serum): > 64 µg/mL
- MIC (E. coli GC 2235; GC2235, read-out: MINIMAL INHIBITORY CONCENTRATION MIC, Water): > 64 µg/mL
- MIC (E. coli GC 2272; GC2272, read-out: MINIMAL INHIBITORY CONCENTRATION MIC, Human Serum): > 64 µg/mL
- MIC (E. coli GC 2272; GC2272, read-out: MINIMAL INHIBITORY CONCENTRATION MIC, Mouse Serum): 64 µg/mL (≈ 93.3 µM)
- MIC (E. coli GC 2272; GC2272, read-out: MINIMAL INHIBITORY CONCENTRATION MIC, Water): > 64 µg/mL
- MIC (E. coli GC 4559; GC4559, read-out: MINIMAL INHIBITORY CONCENTRATION MIC, Human Serum): > 64 µg/mL
- MIC (E. coli GC 4559; GC4559, read-out: MINIMAL INHIBITORY CONCENTRATION MIC, Mouse Serum): 64 µg/mL (≈ 93.3 µM)
- MIC (E. coli GC 4559; GC4559, read-out: MINIMAL INHIBITORY CONCENTRATION MIC, Water): > 64 µg/mL
- MIC (E. coli GC 4560; GC4560, read-out: MINIMAL INHIBITORY CONCENTRATION MIC, Human Serum): 4 µg/mL (≈ 5.83 µM)
- MIC (E. coli GC 4560; GC4560, read-out: MINIMAL INHIBITORY CONCENTRATION MIC, Mouse Serum): 4 µg/mL (≈ 5.83 µM)
- MIC (E. coli GC 4560; GC4560, read-out: MINIMAL INHIBITORY CONCENTRATION MIC, Water): 4 µg/mL (≈ 5.83 µM)
- MIC (E. coli GC 6465; GC6465, read-out: MINIMAL INHIBITORY CONCENTRATION MIC, Human Serum): > 64 µg/mL
- MIC (E. coli GC 6465; GC6465, read-out: MINIMAL INHIBITORY CONCENTRATION MIC, Mouse Serum): 32 µg/mL (≈ 46.7 µM)
- MIC (E. coli GC 6465; GC6465, read-out: MINIMAL INHIBITORY CONCENTRATION MIC, Water): > 64 µg/mL
- MIC (E. coli GC 1073; GC1073, read-out: MINIMAL INHIBITORY CONCENTRATION MIC, Human Serum): > 64 µg/mL
- MIC (E. coli GC 1073; GC1073, read-out: MINIMAL INHIBITORY CONCENTRATION MIC, Mouse Serum): > 64 µg/mL
- MIC (E. coli GC 1073; GC1073, read-out: MINIMAL INHIBITORY CONCENTRATION MIC, Water): > 64 µg/mL
- MIC (S. typhimurium GC 2172; [1]): > 64 µg/mL
- MIC (S. typhimurium GC 2172; [2]): > 64 µg/mL
- MIC (S. typhimurium GC 2172; [3]): > 64 µg/mL
- MIC (S. aureus GC 1131; GC1131, read-out: MINIMAL INHIBITORY CONCENTRATION MIC, Human Serum): 4 µg/mL (≈ 5.83 µM)
- MIC (S. aureus GC 1131; GC1131, read-out: MINIMAL INHIBITORY CONCENTRATION MIC, Mouse Serum): 4 µg/mL (≈ 5.83 µM)
- MIC (S. aureus GC 1131; GC1131, read-out: MINIMAL INHIBITORY CONCENTRATION MIC, Water): 4 µg/mL (≈ 5.83 µM)
- MIC (S. aureus GC 6467; GC6467, read-out: MINIMAL INHIBITORY CONCENTRATION MIC, Human Serum): 4 µg/mL (≈ 5.83 µM)
- MIC (S. aureus GC 6467; GC6467, read-out: MINIMAL INHIBITORY CONCENTRATION MIC, Mouse Serum): 4 µg/mL (≈ 5.83 µM)
- MIC (S. aureus GC 6467; GC6467, read-out: MINIMAL INHIBITORY CONCENTRATION MIC, Water): 4 µg/mL (≈ 5.83 µM)
- MIC (S. aureus GC 1079; GC1079, read-out: MINIMAL INHIBITORY CONCENTRATION MIC, Human Serum): 2 µg/mL (≈ 2.92 µM)
- MIC (S. aureus GC 1079; GC1079, read-out: MINIMAL INHIBITORY CONCENTRATION MIC, Mouse Serum): 4 µg/mL (≈ 5.83 µM)
- MIC (S. aureus GC 1079; GC1079, read-out: MINIMAL INHIBITORY CONCENTRATION MIC, Water): 8 µg/mL (≈ 11.7 µM)
- MIC (S. aureus GC 4536; GC4536, read-out: MINIMAL INHIBITORY CONCENTRATION MIC, Human Serum): 4 µg/mL (≈ 5.83 µM)
- MIC (S. aureus GC 4536; GC4536, read-out: MINIMAL INHIBITORY CONCENTRATION MIC, Mouse Serum): 4 µg/mL (≈ 5.83 µM)
- MIC (S. aureus GC 4536; GC4536, read-out: MINIMAL INHIBITORY CONCENTRATION MIC, Water): 4 µg/mL (≈ 5.83 µM)
- MIC (S. epidermidis GC 4935; GC4935, read-out: MINIMAL INHIBITORY CONCENTRATION MIC, Human Serum): 4 µg/mL (≈ 5.83 µM)
- MIC (S. epidermidis GC 4935; GC4935, read-out: MINIMAL INHIBITORY CONCENTRATION MIC, Mouse Serum): 4 µg/mL (≈ 5.83 µM)
- MIC (S. epidermidis GC 4935; GC4935, read-out: MINIMAL INHIBITORY CONCENTRATION MIC, Water): 4 µg/mL (≈ 5.83 µM)
- MIC (E. faecalis GC 4555; GC4555, read-out: MINIMAL INHIBITORY CONCENTRATION MIC, Human Serum): 4 µg/mL (≈ 5.83 µM)
- MIC (E. faecalis GC 4555; GC4555, read-out: MINIMAL INHIBITORY CONCENTRATION MIC, Mouse Serum): 4 µg/mL (≈ 5.83 µM)
- MIC (E. faecalis GC 4555; GC4555, read-out: MINIMAL INHIBITORY CONCENTRATION MIC, Water): 4 µg/mL (≈ 5.83 µM)
- MIC (E. faecalis GC 2267; GC2267, read-out: MINIMAL INHIBITORY CONCENTRATION MIC, Human Serum): 4 µg/mL (≈ 5.83 µM)
- MIC (E. faecalis GC 2267; GC2267, read-out: MINIMAL INHIBITORY CONCENTRATION MIC, Mouse Serum): 4 µg/mL (≈ 5.83 µM)
- MIC (E. faecalis GC 2267; GC2267, read-out: MINIMAL INHIBITORY CONCENTRATION MIC, Water): 4 µg/mL (≈ 5.83 µM)
- MIC (E. faecalis GC 2242; GC2242, read-out: MINIMAL INHIBITORY CONCENTRATION MIC, Human Serum): 4 µg/mL (≈ 5.83 µM)
- MIC (E. faecalis GC 2242; GC2242, read-out: MINIMAL INHIBITORY CONCENTRATION MIC, Mouse Serum): 2 µg/mL (≈ 2.92 µM)
- MIC (E. faecalis GC 2242; GC2242, read-out: MINIMAL INHIBITORY CONCENTRATION MIC, Water): 4 µg/mL (≈ 5.83 µM)
- MIC (S. pneumoniae* GC 4465; [1]): 4 µg/mL (≈ 5.83 µM)
- MIC (S. pneumoniae* GC 4465; [2]): 4 µg/mL (≈ 5.83 µM)
- MIC (S. pneumoniae* GC 4465; [3]): 4 µg/mL (≈ 5.83 µM)
- MIC (S. pneumoniae+ GC 4465; [1]): 8 µg/mL (≈ 11.7 µM)
- MIC (S. pneumoniae+ GC 4465; [2]): 4 µg/mL (≈ 5.83 µM)
- MIC (S. pneumoniae+ GC 4465; [3]): 8 µg/mL (≈ 11.7 µM)
- MIC (S. agalactiae GC 4564; GC4564, read-out: MINIMAL INHIBITORY CONCENTRATION MIC, Human Serum): 8 µg/mL (≈ 11.7 µM)
- MIC (S. agalactiae GC 4564; GC4564, read-out: MINIMAL INHIBITORY CONCENTRATION MIC, Mouse Serum): 8 µg/mL (≈ 11.7 µM)
- MIC (S. agalactiae GC 4564; GC4564, read-out: MINIMAL INHIBITORY CONCENTRATION MIC, Water): 8 µg/mL (≈ 11.7 µM)
- MIC (c. albicans GC 3066; Candida albicans, GC3066, read-out: MINIMAL INHIBITORY CONCENTRATION MIC): > 64 µg/mL
- MINIMAL INHIBITORY CONCENTRATION MIC (c. albicans GC 3066; Human Serum): >64 UG/ML
- MINIMAL INHIBITORY CONCENTRATION MIC (c. albicans GC 3066; Mouse Serum): >64 UG/ML
SMILES: CC(C)COC(=O)N(CC(=O)Nc1cc(N(C)C)c2c(c1O)C(=O)C1=C(O)[C@]3(O)C(=O)C(C(N)=O)=C(O)[C@@H](N(C)C)[C@@H]3C[C@@H]1C2)C(C)(C)C [Example 59, isobutyl 2-{[(5aR,6aS,7S,10aS)-9-(aminocarbonyl)-4,7-bis(dimethylamino)-1,8,10a,11-tetrahydroxy-10,12-dioxo-5,5a,6,6a,7,10,10a,12-octahydrotetracen-2-yl]amino}-2-oxoethyl(tert-butyl)carbamate]
